What was measured:
[1] = test system: Wistar rats, transient MCA occlusion; test: Tactile adhesion test in rat tMCAO; assay type: in vivo; conditions: 60 mg/kg p.o. at 1.5 and 24 hours after reperfusion then 30 mg/kg every other day, day 7, vs non-treated control, FIG. 4
Excerpt: Rats subjected to cerebral ischemia following transient MCA occlusion have deficits in sensorimotor and neuromuscular function which can be assessed using various behavioral tests. (See, e.g., Aronowski et al. J Cereb Blood Flow Metab (1996) 16:705-713; and Colbourne et al. J Cereb Blood Flow Metab (2000) 20:1702-1708.) The effect of compounds of the present invention on various functional impairments associated with stroke was examined using an animal model of ischemic stroke. In this series of experiments, male Wistar rats (300 g) underwent behavioral testing after transient MCA occlusion. One day prior to MCAO surgery, the rats were trained to the grip strength meter and subjected to tactile adhesion testing. Following their training, rats were subjected to transient occlusion of the MCA in the same manner described in Example 10 above. Compound F (60 mg/kg, p.o.) was administered by oral gavage at 1.5 hours and 24 hours after reperfusion and then every other day (with a dose of 30 mk/kg, p.o.) for 28 days. […]
A tactile adhesion test was used to measure sensorimotor deficits and function. […] The latency (i.e. time required for the animal to remove each stimulus from the forelimbs) was recorded for ipsilateral (right) and contralateral (left) forelimbs separately. Three trials separated by 5 minutes were carried out for each rat and mean latency values in seconds (sec) were recorded.

[2] = test system: vascular endothelial growth factor (VEGF); test: Brain VEGF gene expression in mice after intravenous injection; assay type: in vivo, Swiss Webster mice; conditions: 20 mg/kg i.v., four hours, quantitative real time PCR normalized to 18s RNA
Protocol: The effect of compounds of the present invention on regulation of cytoprotective and neuroprotective gene expression in brain was evaluated. In one series of experiments, male Swiss Webster mice were administered by intravenous injection various compounds of the present invention. Animals treated by intravenous injection received a 6 ml/kg volume of either 5% Dextrose with an equimolar amount of Meglumine (vehicle control) or 20 mg/kg of a compound of the present invention in 5% dextrose with an equimolar amount of Meglumine Animals were euthanized four hours later and their brains placed in RNAlater (Ambion, Austin Tex.) for subsequent analysis. Tissues were homogenized in Trizol (Invitrogen, Carlsbad Calif.) using 5-mm steel beads in a Mixer Mill (Qiagen, Valencia Calif.). RNA was isolated from the Trizol solution and then further purified using RNeasy kit (Qiagen). cDNA was prepared from […] total RNA using Omniscript reverse transcriptase (Qiagen) and random hexamers. Quantitative real time PCR was performed in a 7900HT instrument (Applied Biosystems, Foster City Calif.) using TaqMan Assays-on-Demand (Applied Biosystems). Gene expression levels were normalized to that of 18s RNA.

[3] = test system: Wistar rats, transient occlusion of the MCA; test: Rat tMCAO, 28 days: lesion area, neuronal degeneration, brain tissue loss (Fluoro-Jade B); assay type: in vivo; conditions: 60 mg/kg p.o. at 1.5 and 24 hours after reperfusion then 30 mg/kg every other day, vs non-treated control
Protocol: In another series of experiments, the long term effect of administration of compounds of the present invention on stroke and brain tissue damage associated with stroke was examined. For these studies, the effect of compounds of the present invention on lesion area, neuronal degeneration, and brain tissue loss following stroke was examined 28 days after transient MCA occlusion. Wistar rats (320 g) were subjected to transient occlusion of the MCA as described above. Compound F (60 mg/kg) was administered by oral gavage at 1.5 hours and 24 hours after reperfusion and subsequently every other day (using a dose of 30 mk/kg, p.o.) for 28 days. Twenty-eight days after transient MCA occlusion, animals were anesthetized with 3% isoflurane in oxygen and transcardially perfused with 100 ml of 0.9% saline solution (Hospira Inc, Lake Forest Ill.). Brains were removed and sliced into 6 coronal sections, 2 mm thick, and embedded in cryomold standard (Sakura Finetek, Ca) using O.C.T. embedded medium (Sakura Finetek, Ca). […]
Changes in lesion area were measured as follows. […] Lesion area was determined by measuring the infarcted (i.e., non-Fluoro-Jade B stained) areas of each brain section. […]
Changes in neuronal degeneration were measured as follows. […] Fluoro-Jade B positive cells observed in the digital photographs were quantified using Image Pro-Plus image analysis software (Media Cybernetics, Silver Spring Md.). Extent of neuronal degeneration was determined by comparing the total number of Fluoro-Jade B positive cells per mm^2 area of the treated group to the same area of the corresponding vehicle-control group. The distance of each coronal section from bregma was determined.
Changes in area of brain tissue loss were measured as follows. […] Area of brain tissue loss, associated with the ischemic insult, was measured by […]. A percentage value was then determined by dividing the area of brain tissue loss associated with the stroke by the total area of the contralateral hemisphere. […]

SMILES: COc1ccc(Oc2ccc3c(O)c(C(=O)NCC(=O)O)ncc3c2)cc1 [Compound F, {[4-Hydroxy-7-(4-methoxy-phenoxy)-isoquinoline-3-carbonyl]-amino}-acetic acid]
- latency in the tactile adhesion test [1]: significantly improved
- VEGF gene expression in brain [2]: 1.5
- lesion area ([3]; FIG. 1): reduced
- neuronal degeneration (Fluoro-Jade B positive cells) ([3]; FIG. 2): reduced
- brain tissue loss ([3]; FIG. 3): reduced
